# Measurements: patent US10442773B2, “Amorphous letermovir and solid pharmaceutical formulations thereof for oral administration” (AICURIS ANTI-INFECTIVE CURES GMBH, priority 2013, dated 2019)
# Like-named read-outs stand apart in the source and are kept apart here.
# Experiments:
# HCMV isolates = experiment: Antiviral activity against HCMV isolates; assay type: cell-based, human cytomegalovirus; settings: Human betaherpesvirus 5; HCMV isolates of the respective individual; SD 0.0001 to 0.001
# Text: The term “pharmaceutical activity” of Letermovir denotes the antiviral activity against HCMV isolates of the respective individual, being in the range of EC50±SD of 0.0005 to 0.005±0.0001 to 0.001.
# [1] = pH-solubility profile of amorphous Letermovir (BCS approach); assay type: physicochemical; settings: standard buffer solutions, thermodynamic from solid
# Description: The inventors conducted a solubility study of amorphous Letermovir to investigate its biopharmaceutical status by standardized measures. The inventors orientated on the guidelines of the established Biopharmaceutics Classification System (BCS). The solubility class boundary according to the BCS is based on the highest dose strength of the IR product. By using the BCS approach the equilibrium solubility of amorphous Letermovir under physiological pH conditions is determined. The pH-solubility profile of amorphous Letermovir was determined at 37±1° C. in aqueous media with a pH in the range of 1-7.5. A sufficient number of pH conditions were evaluated to accurately define the pH-solubility profile of amorphous Letermovir. The number of pH conditions for the solubility determination was based on the ionization characteristics of Letermovir. A minimum of three replicate determinations of solubility in each pH condition was conducted. The highest dose of Letermovir is exemplarily 240 mg. When dissolved in 250 ml this equates to a concentration of 0.96 mg/ml.
# [2] = Ionization characteristics (isoelectric point, pKa); assay type: physicochemical
# Text: The expressions “zwitterionic, zwitterionic properties, and zwitterion” in the context of the present invention for the API Letermovir means that a Letermovir molecule is a neutral molecule having a positive and a negative electrical charge at different locations within the same molecule. Accordingly, the API Letermovir has a charge, which changes with pH when measured in an electric field. […] The net charge is influenced by the pH value. Letermovir has a fixed value of isoelectric point (pI) being the pH value at which the number of cations is equal to that of anions. At this point (pI=5.55) the net electric charge of Letermovir is always zero. The solubility class boundary according to the BCS is based on the highest dose strength of the IR product. By using the BCS approach the equilibrium solubility of amorphous Letermovir under physiological pH conditions is determined. The pH-solubility profile of amorphous Letermovir was determined at 37±1° C. in aqueous media with a pH in the range of 1-7.5. A sufficient number of pH conditions were evaluated to accurately define the pH-solubility profile of amorphous Letermovir. The number of pH conditions for the solubility determination was based on the ionization characteristics of Letermovir. A minimum of three replicate determinations of solubility in each pH condition was conducted.
# [3] = Absolute bioavailability, Cohort 1 of a clinical trial (oral vs intravenous); assay type: in vivo; settings: human, plasma; single 30 mg oral dose (amorphous) vs 30 mg intravenous 30 min infusion; based on AUC0-last; 12 healthy female subjects
# Description: Assessment of absolute bioavailability after oral administration of 30 mg Letermovir in the amorphous state versus a 30 minute intravenous administration of 30 mg Letermovir in 150 ml saline solution 0.9%. Cohort 1 of the trial was conducted in an open-label, randomized (to treatment sequence), single center cross-over design (2 periods) in 12 healthy female subjects. Subjects received a single intravenous dose of 30 mg Letermovir via a 30-minute infusion in one period (“reference”) and a single oral dose of 30 mg Letermovir in the amorphous state in the other period (“test”). In both periods subjects were in-house from Day −1 to Day 4 (72 h after dosing on Day 1). The washout period between the periods (i.e. the dosing) was at least one week. The 30 mg dose in Cohort 1 was evaluated (see FIGS. 7a and 7b). Plasma concentrations of Letermovir were determined using a lower limit of quantification (LLOQ) of 1.00 ng/mL. Pharmacokinetic parameters AUC0-∞, Cmax, F, AUC0-last, tmax, λZ, t1/2z, CL/F, CL, Vd/F, Vd, MRT, AUC0-∞/D, Cmax/D, AUC0-last/D for Cohort 1 were calculated in WinNonlin using the actual sampling times. Descriptive statistics were calculated for the plasma concentrations and for the derived pharmacokinetic parameters. Statistics included sample size (n), mean, standard deviation (SD), percentage of coefficient of variation (% CV), geometric mean, median, minimum, and maximum. […]
# [4] = Long-term stability study of Letermovir precipitate tablets; assay type: physicochemical
# Description: Long-term stability studies were conducted with testing of color, dissolution, degradation products and assay at regular intervals to confirm the stability of amorphous Letermovir precipitate tablets.
# In addition, disintegration, water content and hardness/breaking load were conducted as informative tests.
# Samples of one batch of each dose strength of Letermovir precipitate tablets, packaged in 45 ml HDPE bottles with child-resistant closures were stored at 25° C./60% relative humidity and at 40° C./75% relative humidity. Stability data after 36 months storage were reported.
# Additional forced degradation studies were conducted. One batch per dose strength of Letermovir was stored at 60° C. for 3 months. In order to assess the hydrolytic stability, one batch of the 20 mg dose strength was stored with open storage at 40° C./75% relative humidity for 3 months.
compound,measurement,setting,value
"COc1cccc(N2CCN(C3=Nc4c(F)cccc4[C@H](CC(=O)O)N3c3cc(C(F)(F)F)ccc3OC)CC2)c1 [Letermovir, (S)-{8-Fluoro-2-[4-(3-methoxyphenyl)-1-piperazinyl]-3-[2-methoxy-5-(trifluoromethyl)phenyl]-3,4-dihydro-4-quinazolinyl}acetic acid]",EC50,HCMV isolates,0.5 to 5 nM
same,solubility at 24 h,"[1]; 37 °C, aqueous buffer, pH range 1 to 7.5, summary of Table 3, read-out: solubility of Letermovir over the pH-range of 1 to 7.5",≥ 400 µg/mL
same,solubility at 24 h,"[1]; aqueous buffer, pH 2.9 (pKa1 − 1), 37°C±1°C, standard buffer, stirring 24 hours, read-out: Letermovir solubility",800 µg/mL
same,solubility at 24 h,"[1]; aqueous buffer, pH 3.9 (pKa1), 37°C±1°C, standard buffer, stirring 24 hours, read-out: Letermovir solubility",400 µg/mL
same,solubility at 24 h,"[1]; aqueous buffer, pH 4.9 (pKa1 + 1), 37°C±1°C, standard buffer, stirring 24 hours, read-out: Letermovir solubility",400 µg/mL
same,solubility at 24 h,"[1]; aqueous buffer, pH 7.5, 37°C±1°C, standard buffer, stirring 24 hours, read-out: Letermovir solubility",> 1000 µg/mL
same,solubility at 24 h,"[1]; simulated gastric fluid, pH 1, 37°C±1°C, standard buffer, stirring 24 hours, read-out: Letermovir solubility",> 900 µg/mL
same,pKa1,[2],3.9 (pKa1)
same,isoelectric point (pI),[2]; pH at which net electric charge is zero,5.55
same,bioavailability,[3],76%
same,stability under long-term and accelerated storage conditions,"[4]; 25°C/60% relative humidity and 40°C/75% relative humidity, 36 months",stable
same,shelf-life assigned,[4]; real time data at 25°C/60% RH,36 months
